{
  "source": "patent US10653672B2",
  "about": "“Myogenesis promotor, muscle atrophy inhibitor, medical composition and TAZ activator” (National University Corporation Tokyo Medical and Dental …, priority 2014, dated 2020)",
  "key": {"cyclin D1": {"tested_on": "cyclin D1", "test": "Quantitative real-time PCR, cyclin D1", "assay_type": "cell-based, mouse", "conditions": "C2C12 cells, 10 μM; for Normarized mRNA abundance, CyclinD1: listed as IBS008738", "method": "(§1) (1) Quantitative real-time PCR was performed with C2C12 cells immediately before the induction of muscle formation (0 h), and after culturing under differentiation condition in a culture medium added with IBS008738 or DMSO at a concentration of 10 μM for 24 hours (24 h) and 72 hours (72 h), respectively. […] The line and error bar indicate the average value and the standard error, **p<0.05, and ns refers to not significant.\n(2) Evaluation was also performed under the same condition on the connective tissue growth factor (CTGF) and cyclin D1, as TAZ targets in epidermal cells.\n(§2) The quantitative real-time PCR was performed with SYBER Green (Roche) and ABI7500 Realtime PCR system (Applied Biosystems)."}, "calpain 1": {"tested_on": "calpain 1", "test": "Quantitative real-time PCR, calpain 1", "assay_type": "cell-based, mouse", "conditions": "C2C12 cells, 10 μM; for Normarized mRNA abundance, Calpain1: listed as IBS008738", "method": "as §1\nEvaluation was also performed under the same condition on M-cadherin, calpain 1 and caveolin 3, which are myofusion markers. As a result, there was no increase in the degree of gene transcription in the case with IBS008738.\nas §2"}, "TEAD reporter": {"tested_on": "TEAD reporter", "test": "Luciferase reporter assay, TEAD reporter", "assay_type": "cell-based", "conditions": "Mus musculus, C2C12, 24 h, C2C12 cells expressing reporter and TAZ WT, differentiation medium 24 hours", "method": "The effect and its degree on the activity of a reporter, derived from a transcription factor that interacts with TAZ in C2C12 cells, were evaluated. Specifically, C2C12 cells expressing luciferase reporters corresponding to MyoD, TEAD, SMAD and Pax3 and C2C12 cells expressing these luciferase reporters and TAZ were cultured in a culture medium added with IBS008738 or DMSO at a concentration of 10 μM, respectively. […] The line and the error bar indicate the average value and the standard error, *p<0.05, **p<0.01, ns refers to not significant.\nTransfection of the luciferase reporters was performed to the C2C12 cells after being plated at 12-well plates (1×10^5 cells/well) and cultured overnight. As the luciferase reporters, pGL3 Myo-184- (MyoD-), 8×GT-IIC-δ51LucII- (TEAD-), 9×CAGA-MLP-(SMAD-), and p(PRS-1/-4)3- (Pax3-) were transfected to the cells alone or with TAZ. These reporter vectors were from Keiji Miyazawa (Yamanashi University), Hiroshi Sasaki (Kumamoto University) and Hiroki Kurihara (The University of Tokyo).\nImmediately after the transfection, DMSO or IBS008738 was added at a concentration of 10 μM, respectively. After growing the cells to confluence, the cells were transferred to a differentiation medium with DMSO or IBS008738, and cultured for 24 hours before the luciferase assay."}, "[1]": {"tested_on": "association of TEAD with CTGF", "test": "Chromatin immunoprecipitation, TEAD on CTGF promoter", "assay_type": "cell-based, mouse", "conditions": "C2C12 cells; 10 μM; differentiation condition 24 hours; protein G sepharose without antibody; listed as IBS008738", "method": "(1) Chromatin immunoprecipitation of MyoD, TEAD and Pax3 was performed on C2C12 cells that were cultured under differentiation condition for 24 hours in a culture medium added with IBS008738 or DMSO at a concentration of 10 μM. Myogenin, connective tissue growth factor (CTGF) and MyfS were detected by PCR, respectively. The immunoprecipitation with protein G sepharose was used as a control (Mock ChIP). […] The line and the error bar in the figure indicate the average value and the standard error, *p<0.05, ***p<0.001, ns refers to not significant.\nThe Chromatin immunoprecipitation was performed according to the following process. C2C12 cells were cultured to confluence, and then treated with IBS008738 or DMSO at a concentration of 10 μM in a differentiation medium for 24 hours. The cells were crosslinked in 1.42% (v/v) formaldehyde for 15 minutes, and the reaction was quenched by treating with 125 mM glycine for 5 minutes. […] Shearing was analyzed by agarose gel electrophoresis. […] The immunoprecipitated DNA fragments were isolated using Chelex-100 resin and diluted by 1:2.5 for quantitative PCR analysis. Input normalized relative abundance was determined."}},
  "note": "Where “and” joins values, the source holds several entries; their conditions need not be identical. Equal values may be shown once.",
  "data": [
    {"smiles": "Cc1ccc(-n2cnc(/N=C/N3CCOCC3)c2C(=O)c2ccccc2)cc1", "note": "[exemplary compound 1]", "values": [
      {"measurement": "gene transcription of cyclin D1 compared with DMSO", "setting": "cyclin D1; 24 h and 72 h", "value": "no significant difference"},
      {"measurement": "Normarized mRNA abundance, CyclinD1", "setting": "cyclin D1; differentiation condition 24 h", "value": "0.95 and 0.83 and 0.78"},
      {"measurement": "Normarized mRNA abundance, CyclinD1", "setting": "cyclin D1; differentiation condition 72 h", "value": "0.62 and 0.60 and 0.61"},
      {"measurement": "degree of gene transcription of calpain 1", "setting": "calpain 1; 24 h and 72 h", "value": "no increase"},
      {"measurement": "Normarized mRNA abundance, Calpain1", "setting": "calpain 1; differentiation condition 24 h", "value": "0.84 and 0.81 and 0.98"},
      {"measurement": "Normarized mRNA abundance, Calpain1", "setting": "calpain 1; differentiation condition 72 h", "value": "1.15 and 1.18 and 1.22"},
      {"measurement": "fold induction at 10 µM", "setting": "TEAD reporter", "value": 8.41},
      {"measurement": "Input %, CTGF-p, Mock ChIP", "setting": "[1]", "value": "0.06% and 0.04%"}
    ]}
  ]
}
